Test results reported in the supplement of paper PMC11061612.

What was measured:
[1] = system: NCI-H841 (Small Cell Lung Carcinoma); experiment: combination Emax (second highest fraction inhibited in the dose matrix, 72 h); higher = more inhibition; extreme values may be limits of the assay
Outline: (§1)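 Cell lines in DMEM/F12 or RPMI with 10% FBS were plated in 1536-well plates, held 24 hours at 37°C, 5% CO2, then given two-drug dose matrices for 72 hours (DMSO typically 0.2%). Viability was read by CellTiter-Glo 2.0 luminescence and scaled as inhibition from 0 (vehicle wells) to 1 (blank wells). Combination Emax is the second-highest inhibition in the matrix; Bliss excess is observed combination effect minus expected EA + EB − EA·EB, EA and EB being single-agent effects.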

MKN1 (Gastric Carcinoma) [2] = experiment: as above
Outline: as §1

[3] = system: NCI-H841 (Small Cell Lung Carcinoma); experiment: Bliss excess, mean over the matrix (fraction); higher = more synergy
Outline: as §1

KP-N-YN (Neuroblastoma) [4] = experiment: as above
Outline: as §1

MKN1 (Gastric Carcinoma) [5] = experiment: as above
Outline: as §1

KP-N-YN (Neuroblastoma) [6] = experiment: combination Emax (second highest fraction inhibited in the dose matrix, 72 h); higher = more inhibition; extreme values may be limits of the assay
Outline: as §1

A101D (Melanoma) = experiment: Bliss excess, mean over the matrix (fraction); higher = more synergy
Outline: as §1

[7] = system: A253 (Head and Neck Carcinoma); experiment: as above
Outline: as §1

[8] = system: DMS-53 (Small Cell Lung Carcinoma); experiment: as above
Outline: as §1

5637 (Bladder Carcinoma) = experiment: as above
Outline: as §1

[9] = system: HCC1428 (Breast Carcinoma); experiment: as above
Outline: as §1

[10] = system: huH-1 (Hepatocellular Carcinoma); experiment: as above
Outline: as §1

A204 (Rhabdomyosarcoma) = experiment: as above
Outline: as §1

[11] = system: NCI-H2228 (Lung Adenocarcinoma); experiment: as above
Outline: as §1

[12] = system: GA-10 (Burkitt's Lymphoma); experiment: as above
Outline: as §1
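Wherever Bliss excess, mean over the matrix is given: after 72 h of two-drug dosing.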

Structure (SMILES) | combination Emax [1] | combination Emax (MKN1 (Gastric Carcinoma) [2]) | Bliss excess [3] | Bliss excess (KP-N-YN (Neuroblastoma) [4]) | Bliss excess (MKN1 (Gastric Carcinoma) [5]) | combination Emax (KP-N-YN (Neuroblastoma) [6]) | Bliss excess (A101D (Melanoma)) | Bliss excess [7] | Bliss excess [8] | Bliss excess (5637 (Bladder Carcinoma)) | Bliss excess [9] | Bliss excess [10] | Bliss excess (A204 (Rhabdomyosarcoma)) | Bliss excess [11] | Bliss excess [12]
N#Cc1cnc(Nc2cc(NC[C@H]3CNCCO3)c(C(F)(F)F)cn2)cn1 [SRA737] + O=c1[nH]cc(F)c(=O)[nH]1 [5-Fluorouracil] (first compound max 10 µM, 7x7, partner max 20 µM) | 0.183 | 0.69 | -0.0189 | -0.0468 | 0.0221 |  |  |  |  |  |  |  |  |  | 
Cc1cc2ncnn2cc1Nc1ncc2c(n1)n(C1CCOCC1)c(=O)n2C [AZD7648] + COc1cc([C@@H]2c3cc4c(cc3[C@@H](O[C@@H]3O[C@@H]5CO[C@@H](C)O[C@H]5[C@H](O)[C@H]3O)[C@H]3COC(=O)[C@H]23)OCO4)cc(OC)c1O [Etoposide] (first compound max 10 µM, 7x7, partner max 10 µM) | 0.441 | 0.922 | 0.0261 | 0.0446 | 0.0865 | 0.677 |  |  |  |  |  |  |  |  | 
CC(=O)c1c(C)c2cnc(Nc3ccc(N4CCNCC4)cn3)nc2n(C2CCCC2)c1=O [Palbociclib] + CN(CC[C@H](CSC1=CC=CC=C1)NC2=C(C=C(C=C2)S(=O)(=O)NC(=O)C3=CC=C(C=C3)N4CCC(CC4)[C@H](C5=CC=CC=C5C6=CC=C(C=C6)Cl)O)S(=O)(=O)C(F)(F)F)CCO [AZD4320] (first compound max 10 µM, 7x7, partner max 1 µM) |  |  |  |  |  |  | 0.0351 | -0.101 | 0.038 | -0.0373 | -0.082 | -0.0294 | -0.0397 | -0.0627 | -0.0385
C[C@@H](c1ccc2nccn2c1)n1nnc2ncc(-c3cnn(C)c3)nc21 [Savolitinib] + Cc1c2c(nn1C)CSCc1cc(n(C)n1)CSc1cc(c3ccccc3c1)OCCCc1c(C(=O)O)n(C)c3c-2c(Cl)ccc13 [AZD5991] (first compound max 1 µM, 7x7, partner max 1 µM) | 0.266 | 0.111 | -0.0178 | 0.0028 | -0.0366 | 0.324 | -0.0202 | -0.0738 | -0.0359 | -0.0456 | -0.0039 | -0.0586 | -0.0502 | -0.0577 | -0.0354
CN(CCO)CC[C@H](CSc1ccccc1)Nc1ccc(S(=O)(=O)NC(=O)c2ccc(N3CCC([C@@H](O)c4ccccc4-c4ccc(Cl)cc4)CC3)cc2)cc1S(=O)(=O)C(F)(F)F [AZD4320] + Nc1ccn([C@@H]2O[C@H](CO)[C@@H](O)C2(F)F)c(=O)n1 [Gemcitabine] (first compound max 1 µM, 7x7, partner max 0.3 µM) | 0.322 | 0.759 | -0.0317 |  | 0.0005 |  |  |  |  |  |  |  |  |  | 
N#Cc1cnc(Nc2cc(NC[C@H]3CNCCO3)c(C(F)(F)F)cn2)cn1 [SRA737] + Nc1ccn([C@@H]2O[C@H](CO)[C@@H](O)C2(F)F)c(=O)n1 [Gemcitabine] (first compound max 10 µM, 7x7, partner max 0.3 µM) | 0.818 | 0.867 | 0.0776 |  | 0.0588 |  |  |  |  |  |  |  |  |  | 
Cc1nc(Nc2ncc(C(=O)Nc3c(C)cccc3Cl)s2)cc(N2CCN(CCO)CC2)n1 [Dasatinib] + CC(=O)Nc1cccc(-n2c(=O)n(C3CC3)c(=O)c3c(Nc4ccc(I)cc4F)n(C)c(=O)c(C)c32)c1 [Trametinib] (first compound max 2 µM, 7x7, partner max 1 µM) | 0.199 | 0.656 | -0.0356 | -0.0983 | -0.0121 | 0.361 | 0.0947 | -0.189 | -0.0423 | 0.0923 | -0.0334 | -0.0076 | -0.0955 | -0.049 | 0.0228
N#Cc1cnc(Nc2cc(NC[C@H]3CNCCO3)c(C(F)(F)F)cn2)cn1 [SRA737] + CCc1c2c(nc3ccc(O)cc13)-c1cc3c(c(=O)n1C2)COC(=O)[C@]3(O)CC [SN-38] (first compound max 10 µM, 7x7, partner max 0.3 µM) | 0.62 | 0.866 | 0.044 | -0.0189 | 0.0303 |  |  |  |  |  |  |  |  |  | 
C[C@@H](c1ccc2nccn2c1)n1nnc2ncc(-c3cnn(C)c3)nc21 [Savolitinib] + CC1(C)CCC(CN2CCN(c3ccc(C(=O)NS(=O)(=O)c4ccc(NCC5CCOCC5)c([N+](=O)[O-])c4)c(Oc4cnc5[nH]ccc5c4)c3)CC2)=C(c2ccc(Cl)cc2)C1 [Venetoclax] (first compound max 1 µM, 7x7, partner max 1 µM) | 0.201 | 0.0845 | -0.0333 | -0.0927 | -0.0402 | 0.569 | -0.0598 | -0.0524 | -0.0446 | -0.0523 | -0.0219 | -0.0804 | -0.0629 | -0.0605 | -0.0485
CN(CCO)CC[C@H](CSc1ccccc1)Nc1ccc(S(=O)(=O)NC(=O)c2ccc(N3CCC([C@@H](O)c4ccccc4-c4ccc(Cl)cc4)CC3)cc2)cc1S(=O)(=O)C(F)(F)F [AZD4320] + CC(=O)O[C@H]1C(=O)[C@@]2(C)[C@H]([C@H](OC(=O)c3ccccc3)[C@]3(O)C[C@H](OC(=O)[C@H](O)[C@@H](NC(=O)c4ccccc4)c4ccccc4)C(C)=C1C3(C)C)[C@]1(OC(C)=O)CO[C@@H]1C[C@@H]2O [Paclitaxel] (first compound max 1 µM, 7x7, partner max 3 µM) | 0.968 | 0.91 | 0.0423 | 0.0826 | 0.0566 |  |  |  |  |  |  |  |  |  | 
